These results are taken from ChEMBL document CHEMBL1148726, “Allosteric inhibitors of hepatitis C polymerase: discovery of potent and orally bioavailable carbon-linked dihydropyrones” (J Med Chem, 2007).

Molecules are shown by their SMILES. Calls of active or inactive are those of the source. Some results are limits rather than exact numbers.

A short description of data set [1]: Inhibition of HCV 1b NS5B delta21 RNA dependent RNA polymerase by enzymatic assay. On the set-up: species or system Hepacivirus hominis.
Data set [2] concerns Hepatitis C virus. Kind of data set: Antiviral activity against Hepatitis C virus infected Huh7 cells. The class given is functional, organism-based, Hepacivirus hominis, Huh-7.
A short description of data set [3]: Cytotoxic against Huh7 cells. The conditions noted are these: human. It is filed as cell-based, Huh-7.
Data set [4] deals with Rattus norvegicus. Kind of data set: (§1) Volume of distribution in rat at 25 mg/kg, po or 5 mg/kg, iv. The class given is ADME, organism-based. The conditions noted are these: in vivo.
Data set [5] relates to Rattus norvegicus. The experiment in a line: (§2) Half life in rat at 25 mg/kg, po or 5 mg/kg, iv. To be noted: in vivo. The class given is ADME, organism-based.
Data set [6] is described as follows: (§3) Bioavailability in rat at 10 mg/kg, po. The class given is ADME, organism-based. To be noted: in vivo.
Data set [7] concerns Hepacivirus hominis. Kind of data set: (§4) Inhibition of HCV 1a NS5B delta21 RNA dependent RNA polymerase by enzymatic assay.
Data set [8] in a line: Ratio of EC50 for HCV in Huh7 cells to IC50 for HCV NS5 B delta 21 polymerase. The class given is functional, Hepacivirus hominis, Huh-7.
Data set [9] in a line: Total plasma clearance in rat at 25 mg/kg, po or 5 mg/kg, iv. The class given is ADME, organism-based.
The nature of data set [10]: as §1. It is filed as ADME, organism-based. To be noted: in vivo, read-out: Vdss.
Data set [11] is described as follows: as §2. It is filed as ADME, organism-based. The conditions noted are these: in vivo.
Data set [12] can be described thus: Fraction absorption in rat at 25 mg/kg, po. It is filed as ADME, organism-based. On the set-up: dose 25 mg/kg, route oral. The conditions noted are these: in vivo.
Data set [13] in a line: Bioavailability in rat at 25 mg/kg, po. It is filed as ADME, organism-based. To be noted: in vivo.
A short description of data set [14]: Permeability from apical to basolateral side of the Caco-2 cell membrane. The class given is ADME, cell-based. The conditions noted are these: human. (Caco-2 cells form a polarised layer with tight junctions and transporters.)
The nature of data set [15]: Permeability from basolateral to apical side of the Caco-2 cell membrane. The class given is ADME, cell-based. The conditions noted are these: human.
The subject of data set [16] is Rattus norvegicus. The data set is described as §3. To be noted: in vivo. The class given is ADME, organism-based.
Data set [17] is described as follows: as §4. Set-up: species or system Hepacivirus hominis.
The nature of data set [18]: Fraction absorption in rat at 10 mg/kg, po. It is filed as ADME, organism-based. Set-up: dose 10 mg/kg, route oral. The conditions noted are these: in vivo.
A short description of data set [19]: Total plasma clearance in rat at 10 mg/kg, po or 2 mg/kg, iv. The class given is ADME, organism-based.
A short description of data set [20]: Volume of distribution in rat at 10 mg/kg, po or 2 mg/kg, iv. It is filed as ADME, organism-based. The conditions noted are these: in vivo, read-out: Vdss.
Data set [21] can be described thus: Half life in rat at 10 mg/kg, po or 2 mg/kg, iv. The class given is ADME, organism-based. The conditions noted are these: in vivo.

In general, IC50 refers to the midpoint of a concentration-inhibition curve. High values mean weaker potency in that assay, low ones greater potency in that assay. What is called EC50 is the concentration giving half of the maximal effect. A higher EC50 goes with weaker potency. As usually defined, the CC50 is the concentration giving 50% cytotoxicity. Low readings indicate harm at low concentration, high ones better tolerance by the cells. Turning to `COc1ccc(CCC2(C3CCCC3)CC(O)=C(Cc3nc4nc(C)cc(C)n4n3)C(=O)O2)cc1C` (stereo not given), the midpoint of inhibition in [1], the IC50, lay at 54 nM. Besides, in data set [2] (Hepatitis C virus, Huh-7), the midpoint of the response, the EC50, lay at 1200 nM. For the same compound, in [3] (Huh7 cells), the half-maximal cytotoxic concentration (CC50) is greater than 32 µM.
On the same counts, the results for `Cc1cc(C)n2nc(CC3=C(O)CC(CCc4ccc(S(C)(=O)=O)c(Cl)c4)(C4CCCC4)OC3=O)nc2n1` (stereo not given) are 60 nM, 610 nM and greater than 32 µM.
As a reminder, the bioavailability is dose-corrected exposure relative to a reference, in per cent. Read a low bioavailability as poor availability. `Cc1cc(C)n2nc(CC3=C(O)CC(CCc4ccc(C(C)(C)C#N)c(F)c4)(C4CCCC4)OC3=O)nc2n1` (single isomer, unassigned; enantiomer 2) [listing 1 of 2 here] returned an IC50 in data set [1] of 1 nM. The compound further came in with a concentration giving a half-maximal response (EC50) in data set [2] (huh-7) of 32 nM. In data set [4], this compound returned a Vdss of 0.17 L/kg. The same compound returned a t1/2 in data set [5] of 28.2 min. The compound further registered a bioavailability in [6] of 37%.
`Cc1cc(C)n2nc(CC3=C(O)CC(CCc4ccc(C(C)(C)C#N)c(F)c4)(C4CCCC4)OC3=O)nc2n1` (single isomer, unassigned; enantiomer 2) [listing 2 of 2 here]: the result in data set [7] was inactive.
In turn, `Cc1cc(C)n2nc(CC3=C(O)CC(CCc4ccc(C(C)(C)NS(C)(=O)=O)c(F)c4)(C4CCCC4)OC3=O)nc2n1` (stereo not given) registered an IC50 in data set [1] of 17 nM. In data set [2] (Hepatitis C virus, Huh-7), the EC50 turned out to be 110 nM. Also, in data set [3] (Huh7 cells), the cytotoxic concentration (CC50) was greater than 32 µM.
In general, half-life refers to the time needed for the level to fall by half in the phase considered. A low value points to rapid decline. One may read the Papp A→B as how fast a substance crosses the layer from the apical side. Lower therefore signals slow passage. In general, Papp B→A refers to how fast a substance crosses the layer from the basolateral side. Regarding `COc1ccc(CCC2(C3CCCC3)CC(O)=C(Sc3nc4nc(C)cc(C)n4n3)C(=O)O2)cc1Cl` (stereo not given), the IC50 in data set [1] amounted to 36 nM. Also, the midpoint of the response in data set [2] (Hepatitis C virus, Huh-7), the EC50, lay at 3250 nM. Besides, in data set [8], the Ratio was 90. The same compound showed a CC50 in data set [3] (Huh7 cells) greater than 100 µM. In addition, the clearance in data set [9] was determined as 14.8 mL/min/kg. Further, the Vd in data set [10] turned out to be 2 L/kg. The compound also had a half-life in [11] of 90 min. Moreover, the Fa in [12] is 2.5%. Further, in data set [13], the bioavailability is 2%. The apical-to-basolateral permeability (Papp A→B) in data set [14] was 3 ×10⁻⁶ cm/s. Further, in [15], the Papp B→A was 2.3 ×10⁻⁶ cm/s.
Compound `Cc1cc(SC2=C(O)OC(CCc3ccc(O)cc3)(C3CCCC3)CC2=O)c(C(C)(C)C)cc1N` (stereo not given) yielded an IC50 in data set [1] of 930 nM.
In turn, `Cc1cc(C)n2nc(CC3=C(O)CC(CCc4ccc(C(C)(C)C#N)c(F)c4)(C4CCCC4)OC3=O)nc2n1` (stereo in doubt; 22) gave a half-inhibitory concentration (IC50) in [1] of 3 nM. The EC50 in [2] (huh-7) was found to be 30 nM. Further, the CC50 in data set [3] (huh-7) is greater than 32 µM.
For the compound `COc1ccc(CCC2(C3CCCC3)CC(O)=C(Cc3nc4nc(C)cc(C)n4n3)C(=O)O2)cc1F` (stereo not given), half-maximal inhibition in data set [1] (IC50) was put at 15 nM. In [2] (Hepatitis C virus, Huh-7), this compound returned a concentration for a half-maximal effect (EC50) of 400 nM. Moreover, in [3] (Huh7 cells), the CC50 was greater than 32 µM.
For `Cc1cc(C)n2nc(CC3=C(O)CC(CCc4ccc(C(C)(C)C#N)c(F)c4)(C4CCCC4)OC3=O)nc2n1` (single isomer, unassigned; enantiomer 1), the 50% cytotoxic concentration (CC50) in data set [3] (huh-7) came out at 320 µM. The compound also displayed a clearance in data set [9] of 3.7 mL/min/kg. For the same compound, in [10], the Vd turned out to be 0.3 L/kg. This compound also had a half-life in [11] of 52.8 min. Also, the F in data set [16] came out at 31%. In addition, the IC50 in data set [17] was 70 nM.
In [1], `Cc1cc(C)n2nc(CC3=C(O)CC(CCc4ccc(C(C)(C)C#N)c(Cl)c4)(C4CCCC4)OC3=O)nc2n1` (stereo not given) yielded an IC50 of 2 nM. Moreover, the CC50 in [3] (Huh7 cells) is greater than 32 µM.
Consider `COc1ccc(CCC2(C3CCCC3)CC(O)=C(Cc3nc4nc(C)cc(C)n4n3)C(=O)O2)cc1Cl` (stereo not given), for which, in data set [1], 20 nM corresponded to half-maximal inhibition (IC50). This compound registered an EC50 in data set [2] (Hepatitis C virus, Huh-7) of 330 nM. Also, the Ratio in [8] is recorded as 17. This compound also came in with a half-maximal cytotoxic concentration (CC50) in data set [3] (Huh7 cells) greater than 32 µM. Besides, the Fa in [18] worked out at 48%. This compound registered a bioavailability in data set [6] of 42%. Further, the Papp A→B in [14] stood at 10 ×10⁻⁶ cm/s. This compound came in with a clearance in [19] of 8.3 mL/min/kg. In addition, the Vd in [20] was 0.3 L/kg. Besides, the basolateral-to-apical permeability (Papp B→A) in [15] turned out to be 6.8 ×10⁻⁶ cm/s. Further, the half-life in data set [21] was 30 min.
Compound `CCOc1ccc(CCC2(C3CCCC3)CC(O)=C(Cc3nc4nc(C)cc(C)n4n3)C(=O)O2)cc1Cl` (stereo not given) gave a concentration for half-maximal inhibition (IC50) in [1] of 4 nM. In [2] (Hepatitis C virus, Huh-7), this compound showed a 50% effective concentration (EC50) of 320 nM. The compound also came in with a CC50 in data set [3] (Huh7 cells) greater than 32 µM.
